# Experimental data: ChEMBL document CHEMBL3044529, “7-Hydroxy-coumarin derivatives: synthesis, characterization and preliminary antimicrobial activities” (2011)
# Experiments:
# Format in all cases: functional
# [1] = test system: Candida parapsilosis; assay: Antimicrobial activity against Candida parapsilosis by macro dilution test; settings: Lodderomyces parapsilosis
# [2] = test system: Salmonella typhimurium; assay: Antimicrobial activity against Salmonella enterica subsp. enterica serovar Typhimurium by macro dilution test
# [3] = test system: Streptococcus pyogenes; assay: Antimicrobial activity against Streptococcus pyogenes by macro dilution test
# [4] = test system: Staphylococcus aureus; assay: Antimicrobial activity against Staphylococcus aureus by macro dilution test
# [5] = test system: Pseudomonas aeruginosa; assay: Antimicrobial activity against Pseudomonas aeruginosa by macro dilution test
# [6] = test system: Cryptococcus neoformans; assay: Antimicrobial activity against Cryptococcus neoformans by macro dilution test
# [7] = test system: Bacillus subtilis; assay: Antimicrobial activity against Bacillus subtilis by macro dilution test
# [8] = test system: Escherichia coli; assay: Antimicrobial activity against Escherichia coli by macro dilution test
# [9] = test system: Pichia kudriavzevii; assay: Antimicrobial activity against Pichia kudriavzevii by macro dilution test
# [10] = test system: Candida albicans; assay: Antimicrobial activity against Candida albicans by macro dilution test
Compound,MIC [1],MIC [2],MIC [3],MIC [4],MIC [5],MIC [6],MIC [7],MIC [8],MIC [9],MIC [10]
CCCCC/C=C\CC[C@H](O)CCCCCCCC(=O)Oc1ccc2ccc(=O)oc2c1,16 µg/mL,64 µg/mL,32 µg/mL,32 µg/mL,128 µg/mL,8 µg/mL,64 µg/mL,32 µg/mL,256 µg/mL,2 µg/mL
CCCCCC[C@@H](O)C/C=C\CCCCCCCC(=O)Oc1ccc2ccc(=O)oc2c1,16 µg/mL,64 µg/mL,64 µg/mL,32 µg/mL,128 µg/mL,16 µg/mL,64 µg/mL,64 µg/mL,256 µg/mL,4 µg/mL
CCCCCCCC/C=C\CCCCCCCC(=O)Oc1ccc2ccc(=O)oc2c1,64 µg/mL,128 µg/mL,128 µg/mL,128 µg/mL,128 µg/mL,32 µg/mL,64 µg/mL,128 µg/mL,512 µg/mL,8 µg/mL
C=CCCCCCCCCC(=O)Oc1ccc2ccc(=O)oc2c1,32 µg/mL,64 µg/mL,64 µg/mL,128 µg/mL,128 µg/mL,16 µg/mL,64 µg/mL,128 µg/mL,256 µg/mL,4 µg/mL
O=C(N[C@H](CO)[C@H](O)c1ccc([N+](=O)[O-])cc1)C(Cl)Cl [CHLORAMPHENICOL],,32 µg/mL,32 µg/mL,32 µg/mL,64 µg/mL,,32 µg/mL,32 µg/mL,,
OC(Cn1cncn1)(Cn1cncn1)c1ccc(F)cc1F [FLUCONAZOLE],8 µg/mL,,,,,8 µg/mL,,,64 µg/mL,1 µg/mL
